Tests used:
[1] = tested on: CaCo-2 (colorectal adenocarcinoma) cells; assay: SRB cell growth inhibition assay, CaCo-2; assay type: cell-based, human; conditions: Homo sapiens, Caco-2, 72 h, mean ± standard deviation
Method: (§1) The antitumor potential of the Sonogashira coupling products 2, tricyclic lactones 3 and 5, and tetracyclic lactones 7 was evaluated using the sulforhodamine B (SRB) assay against five human tumor cell lines: colorectal adenocarcinoma (CaCo-2), breast adenocarcinoma (MCF-7), gastric adenocarcinoma (AGS), cervical carcinoma (HeLa), and non-small cell lung cancer (NCI-H460). A primary pig liver cell culture (PLP2) was used to assess the toxicity of compounds.
(§2) The human tumor cell lines used were CaCo-2 (colorectal adenocarcinoma), MCF-7 (breast adenocarcinoma), AGS (gastric adenocarcinoma), HeLa (cervical carcinoma), NCI-H460 (lung carcinoma). Non-tumor cell lines were also tested: PLP2 (primary pig liver culture). All the cell lines were maintained in RPMI-1640 medium supplemented with 10% fetal bovine serum, glutamine (2 mM), penicillin (100 U/mL), and streptomycin ([…]), with the exception of PLP2, which was maintained in DMEM medium supplemented with fetal bovine serum (10%), glutamine and antibiotics. The culture flasks were incubated at 37 °C and with 5% CO2, under a humid atmosphere. The cells were used only when they had 70 to 80% confluence. A known mass of each compound was dissolved in DMSO/H2O (1:1, 1 mL), in order to obtain the stock solutions with a concentration of 1 mM. […] Each compound concentration (10 μL) was incubated with the cell suspension (190 μL) of the cell lines tested in 96-well microplates for 72 h. The microplates were incubated at 37 °C and with 5% CO2 in a humid atmosphere after checking the adherence of the cells. All cell lines were tested at a concentration of 10,000 cells/well. After the incubation period, the cells were treated: TCA (10% w/v; 100 μL) was previously cooled, and plates were incubated for 1 h at 4 °C, washed with water, and, after drying, a SRB solution (0.057%, m/v; 100 μL) was added and left to stand at room temperature for 30 min. To remove non-adhered SRB, plates were washed three times with a solution of acetic acid (1% v/v) and placed to dry. Finally, an adhered SRB was solubilized with Tris (10 mM, 200 μL) and the absorbance at a wavelength of 540 nm was read in the Biotek ELX800 microplate reader. The results obtained by the SRB assay were expressed regarding the concentration compounds that can inhibit cell growth by 50%—GI50. Doxorubicin was used as a positive control.

[2] = tested on: NCI-H460 (non-small cell lung cancer) cells; assay: SRB cell growth inhibition assay, NCI-H460; assay type: cell-based; conditions: Homo sapiens, 72 h, mean ± standard deviation
Method: as §1, §2

[3] = tested on: AGS (gastric adenocarcinoma) cells; assay: SRB cell growth inhibition assay, AGS; assay type: cell-based; conditions: Homo sapiens, 72 h, mean ± standard deviation
Method: as §1, §2

[4] = tested on: HeLa (cervical carcinoma) cells; assay: SRB cell growth inhibition assay, HeLa; assay type: cell-based; conditions: Homo sapiens, 72 h, mean ± standard deviation
Method: as §1, §2

[5] = SRB assay, toxicity in non-tumor PLP2 cells; assay type: cell-based, pig; conditions: PLP2 primary pig liver cells (non-tumor); non-tumor primary pig liver cells, SRB assay, 72 h, mean ± standard deviation
Method: as §1, §2

[6] = tested on: MCF-7 (breast adenocarcinoma) cells; assay: SRB cell growth inhibition assay, MCF-7; assay type: cell-based, human; conditions: Homo sapiens, MCF7, 72 h, mean ± standard deviation
Method: as §1, §2

[7] = MTT cytotoxicity in THP-1-derived macrophages; assay type: cell-based, human; conditions: human, THP-1-derived macrophages (PMA-differentiated); MTT, 72 h, tested 100 to 12.5 μM; read-out: CC50 Interval in THP-1-Derived Macrophages
Method: Human leukemia cell line, THP-1 (ATCC® TIB-202™, Manassas, VA, USA) was cultured in RPMI-1640 medium supplemented with 10% heat-inactivated Fetal Bovine Serum (FBS), 2 mM L-glutamine, 100 UI/mL penicillin/streptomycin, 20 mM HEPES. The cell line was maintained in a humidified incubator at 37 °C and 5% CO2 by subculture every three days in 20 mL of media at a concentration of 1 × 10^5/mL in a T75 flask. All cell culture reagents were purchased from Lonza-Bioscience (Morrisville, NC, USA).
The cytotoxicity effect of compounds on THP-1-derived macrophages was assessed by the colorimetric MTT assay (3-(4,5-dimethylthiazol-2-yl)-2,5-diphenyl tetrazolium bromide). Briefly, THP-1 cells were suspended in RPMI complete medium at a density of 1 × 10^6 cells/mL and 100 μL/well were seeded in a 96-well plate and were differentiated into macrophages by addition of 40 ng/mL of phorbol-myristate 13-acetate (PMA, Sigma, Saint Louis, MI, USA) for 24 h followed by replacement with fresh medium for more 24 h. Subsequently, cells were incubated with 100 μL of compounds ranging from 100 to 12.5 μM after dilution in the RPMI complete medium. Each condition was carried out in quadruplicate. After 72 h of incubation at 37 °C 5% CO2, the medium was removed and 200 μL of 0.5 mg/mL MTT solution diluted in RPMI was added. Plates were incubated for an additional 4 h. Then 160 μL of media was removed and the same volume of 2-propanol was added. Absorbance was read at 570 nm using a Synergy 2 Multi-Mode Reader (Biotek, Winooski, VT, USA). Cytotoxicity was evaluated by the determination of the CC50 value (drug concentration that reduced the percentage of viable cells in 50%) and calculated by non-linear regression analysis using GraphPad Prism version 8.1.1 for Windows (GraphPad Software, San Diego, CA, USA). The results represent the average of at least three independent experiments. For each compound, the Selectivity Index (SI) was calculated as the ratio between cytotoxicity in THP-1 (CC50, 72 h) and activity against parasites (IC50, 72 h).

[8] = tested on: T. brucei Lister 427 bloodstream forms; assay: Resazurin-based anti-T. brucei assay; assay type: cell-based, Trypanosoma brucei; conditions: Trypanosoma brucei, 72 h, dose-response
Method: (§3) The antiparasitic activity of compounds 2c–g, 3a, 5a and 7 was evaluated at a single concentration of 20 μM, against Trypanosoma brucei (T. brucei) and Leishmania infantum (L. infantum) promastigotes. The results are shown in Table 9 together with the cytotoxicity data (CC50) in THP-1–derived macrophages cells.
T. brucei Lister 427 bloodstream forms were grown in a humidified incubator at 37 °C, 5% CO2 in complete HMI-9 medium 1 supplemented with 10% heat-inactivated Fetal Bovine Serum (FBS) and 100 UI/mL penicillin/streptomycin. Parasites maintenance was performed in T25 ventilated flasks by subpassage at a concentration of 1 × 10^4/mL every 2 days on T25 ventilated flasks.
The efficacy of compounds against T. brucei bloodstream forms was evaluated using a modified resazurin-based assay previously described in the literature. Parasites were added to 100 µL of serial dilutions of compounds in supplemented complete medium at a cell density of 5 × 10^3/mL for. As a quality control, a dose–response curve for the antitrypanosomal pentamidine was included in all the assays. The final volume of the assay is 200 µL/well. Each condition was carried out in duplicate. Following 72 h incubation at the specific conditions for T. brucei, 20 µL of a 0.5 mM resazurin solution was added and plates were incubated for a further 4 h under the same conditions. Fluorescence was measured at 544 nm and 590 nm excitation and emission wavelength, respectively, using a Synergy 2 Multi-Mode Reader (Biotek, Winooski, VT, USA). Results were shown as % of parasite growth inhibition compared to control (untreated parasites) and represent the average of at least three independent experiments. The effect was evaluated by the determination of the IC50 value (concentration required to inhibit growth in 50%) and calculated by non-linear regression curves using GraphPad Prism version 8.1.1 for Windows (GraphPad Software, San Diego CA, USA).

[9] = tested on: L. infantum MHOM/MA/67/ITMAP-263 promastigotes; assay: Resazurin-based assay against L. infantum promastigotes; assay type: cell-based, Leishmania infantum; conditions: Leishmania infantum, 72 h, dose-response
Method: as §3
L. infantum MHOM/MA/67/ITMAP-263 promastigotes forms were grown at 27 °C, in complete RPMI-1640 medium supplemented with 10% heat-inactivated Fetal Bovine Serum (FBS), 2 mM L-glutamine, 100 UI/mL penicillin/streptomycin, 20 mM HEPES. Parasites maintenance was performed in T25 non-ventilated flasks by subpassage at a concentration of 1 × 10^6/mL every 5 days on T25 non-ventilated flasks.
The compounds’ efficacy against L. infantum promastigotes was evaluated using a resazurin-based assay. Parasites were added to 100 µL of serial dilutions of compounds in supplemented complete medium at a cell density of 5 × 10^5/mL. As a quality control, a dose–response curve to the antileishmanial drug miltefosine was included in all the assays. The final volume of the assay was 200 µL/well. Each condition was carried out in duplicate. Following 72 h of incubation at the specific conditions for L. infantum, 20 µL of a 0.5 mM resazurin solution was added, and the plates were incubated for a further 4 h under the same conditions. The methodology to obtain the results was the same described in Section 3.2.2. for T. brucei.

GI50 [1] | GI50 [2] | GI50 [3] | GI50 [4] | GI50 [6] | IC50 [8] | IC50 [9] | Compound | GI50 at 72 h [5] | CC50 at 72 h [7]
70 ± 3.78 µM | 91.5 ± 9.12 µM | 86.8 ± 4.99 µM | 68.7 ± 3.05 µM | 94.8 ± 6.43 µM | – | – | COC(=O)c1sc2nccnc2c1C#Cc1ccccc1 [Compound 2a, Methyl 7-(phenylethynyl)thieno[2,3-b]pyrazine-6-carboxylate] | > 125 µM | –
59.2 ± 1.76 µM | 48.6 ± 4.31 µM | 51.4 ± 2.87 µM | 47.9 ± 3.58 µM | 49.7 ± 2.41 µM | – | – | COC(=O)c1sc2nccnc2c1C#Cc1ccc(N)cc1 [Compound 2b, Methyl 7-[(4-aminophenyl)ethynyl]thieno[2,3-b]pyrazine-6-carboxylate] | > 125 µM | –
79.9 ± 3.56 µM | 36.5 ± 0.69 µM | 56.4 ± 3.76 µM | 49.7 ± 2.69 µM | 77.5 ± 1.23 µM | – | – | O=c1oc(-c2ccccc2)cc2c1sc1nccnc12 [Compound 3a, 8-phenyl-6H-pyrano[4′,3′:4,5]thieno[2,3-b]pyrazin-6-one] | > 125 µM | 50 to 100 µM
67.5 ± 4.19 µM | 82.7 ± 7.41 µM | 74.3 ± 5.96 µM | 58.1 ± 4.29 µM | 75.7 ± 6.48 µM | – | – | Nc1ccc(-c2cc3c(sc4nccnc43)c(=O)o2)cc1 [Compound 3b, 8-(4-aminophenyl)-6H-pyrano[4′,3′:4,5]thieno[2,3-b]pyrazin-6-one] | > 125 µM | –
44.1 ± 0.93 µM | 72.4 ± 6.24 µM | 51.5 ± 3.29 µM | 48.4 ± 3.19 µM | 56.1 ± 3.56 µM | – | – | O=c1oc(-c2ccc(F)cc2)cc2c1sc1nccnc12 [Compound 3c, 8-(4-fluorophenyl)-6H-pyrano[4′,3′:4,5]thieno[2,3-b]pyrazin-6-one] | > 125 µM | –
90.5 ± 6.47 µM | 45.3 ± 3.27 µM | 56.2 ± 3.02 µM | 50.3 ± 4.79 µM | 58.6 ± 1.86 µM | – | – | COc1ccc(-c2cc3c(sc4nccnc43)c(=O)o2)cc1 [Compound 3d, 8-(4-Methoxyphenyl)-6H-pyrano[4′,3′:4,5]thieno[2,3-b]pyrazin-6-one] | > 125 µM | –
28.8 ± 1.85 µM | 29.3 ± 1.47 µM | 43.8 ± 1.76 µM | 38.2 ± 3.29 µM | 47.6 ± 4.5 µM | – | – | Cc1ccc(-c2cc3c(sc4nccnc43)c(=O)o2)cc1 [Compound 3e, 8-(p-Tolyl)-6H-pyrano[4′,3′:4,5]thieno[2,3-b]pyrazin-6-one] | 90.5 ± 6.47 µM | –
52.5 ± 1.31 µM | 44 ± 3.28 µM | 45.3 ± 0.89 µM | 39 ± 1.78 µM | 48.6 ± 2.15 µM | – | – | O=c1oc(-c2ccsc2)cc2c1sc1nccnc12 [Compound 3g, 8-(thiophen-3-yl)-6H-pyrano[4′,3′:4,5]thieno[2,3-b]pyrazin-6-one] | > 125 µM | –
18.3 ± 0.92 µM | 48.3 ± 1.08 µM | 32.8 ± 1.56 µM | 29.1 ± 2.81 µM | 45.1 ± 1.74 µM | – | – | O=c1oc(-c2ccccc2)c(Br)c2c1sc1nccnc12 [Compound 5b, 9-Bromo-8-phenyl-6H-pyrano[4′,3′:4,5]thieno[2,3-b]pyrazin-6-one] | 89.8 ± 1.79 µM | –
87.8 ± 8.01 µM | 108 ± 5.44 µM | 104 ± 9.12 µM | 77.1 ± 1.12 µM | 90.3 ± 4.16 µM | – | – | O=c1oc(-c2ccc(Br)cc2)c(-c2ccc(Br)cc2)c2c1sc1nc3ccccc3cc12 [Compound 7c, 3,4-Bis(4-bromophenyl)-1H-pyrano[4′,3′:4,5]thieno[2,3-b]quinolin-1-one] | > 125 µM | < 12.5 µM
87 ± 3.51 µM | 92.1 ± 3.89 µM | 83.4 ± 6.27 µM | 71.5 ± 2.36 µM | 76.4 ± 2.58 µM | – | – | Cc1c(-c2ccccc2)oc(=O)c2sc3nc4ccccc4cc3c12 [Compound 7f, 4-Methyl-3-phenyl-1H-pyrano[4’,3’:4,5]thieno[2,3-b]quinolin-1-one] | > 125 µM | 12.5 to 50 µM
– | – | – | – | – | 2.9 µM | – | CCCCCCCCCCCCCCCCOP(=O)([O-])OCC[N+](C)(C)C [Milefosine, miltefosine, reference compound] | – | –
– | – | – | – | – | – | 2.94 µM | N=C(N)c1ccc(OCCCCCOc2ccc(C(=N)N)cc2)cc1 [Pentamidine, pentamidine, reference compound] | – | –
0.04 µM | 0.07 µM | 0.03 µM | 0.05 µM | 0.05 µM | – | – | COc1cccc2c1C(=O)c1c(O)c3c(c(O)c1C2=O)C[C@@](O)(C(=O)CO)C[C@@H]3O[C@H]1C[C@H](N)[C@H](O)[C@H](C)O1 [doxorubicin, Doxorubicin, reference compound] | 0.1 µM | –

From article PMC12073635, “Synthesis of Tricyclic and Tetracyclic Lactone Derivatives of Thieno[2,3-b]pyrazine or Thieno[2,3-b]quinoline: Preliminary Antitumor and Antiparasitic Activity Evaluation” (Molecules, 2025)
